“Also recorded” adds a separate entry of the source. Values belong to the compound of their own block, whether it stands above or below them. Residues, ends and D or L forms follow the SMILES beside them. No end group written: not given here. *: point of attachment. Fluorescein(5-Mal) = O=C1OC2(c3ccc(O)cc3Oc3cc(O)ccc32)c2ccc(N3C(=O)CC(*)C3=O)cc21
Columns and labels:
[1] = Fluorescent plate reader assay of quenching of FAM-NP41 fluorescence by food dyes
From the text: (§1) FIGS. 21A-21C: Food dyes efficiently quench FAM-NP41 bladder fluorescence. A fluorescent plate reader assay was used to show dose dependent quenching of FAM-NP41 fluorescence. Erythrosine extra bluish (Santa Cruz Biotechnology, Inc.) was the most efficient quencher with >˜80% quenching at 2.5 times dye to fluorescein ratio and >95% quenching at 5× dye to fluorescein ratio (A). Other food dyes tested included Allura Red and Sunset Yellow. To test for quenching in-vivo we administered, by direct iv injection, 50 mg/kg MW 879.76 (˜1.5 μmoles per 25 gm mouse) to mice that had been injected with 150 nmoles of FAM-NP41 2 hours prior. This represents approximately a 10× dye to FAM-NP41 dose. Some bladder fluorescence remained after imaging so additional dye (30 μl, 10 mM Erythrosin extra bluish) was injected directly into the bladder. […] Dye would likely not be needed if this method was used for human patients as bladder catheterization in patients could be started as FAM-NP41 is administered so bladder fluorescence could be washed out.

bladder fluorescence = test: In-vivo quenching of FAM-NP41 bladder fluorescence; design: species or system mouse; settings: 50 mg/kg i.v. plus 30 μl 10 mM intra bladder, 150 nmoles FAM-NP41 2 hours prior
From the text: as §1

sciatic nerve = test: In-vivo fluorescence imaging of sciatic nerve in mice after i.v. injection of FAM-labelled peptides; design: species or system mouse; settings: 450 nmols i.v.
Experimental: In-vivo fluorescence image of sciatic nerve of 6 month old SKH1-Elite mice injected i.v. with 450 nmols of FAM-HNP401 (A) or FAM-NP41 (B) and imaged on the Lumar imaging scope 2 h post injection. […] Each mouse was injected i.v. with 100 nmol of FAM-HNP401 prior to blood collection at 1 min, 10 min, 20 min, 30 min, 1 h and 2 h timepoints (H).
In-vivo fluorescence image of sciatic nerves from 6 month old SKH1 mice that had been previously intravenously injected with 450 nmols of FAM-HNP401 [˜48.4 mg/kg] (A) or FAM-NP41 [˜39 mg/kg] (B). […] Each mouse was injected intravenous with 100 nmol [˜11 mg/kg] of FAM-HNP401 prior to blood collection at 1 min, 10 min, 20 min, 30 min, 1 h and 2 h time points.

human sural nerve = test: Topical application of FAM-labelled peptides on sections of human sural nerve and temporalis muscle; format: binding; settings: for nerve binding and nerve to muscle contrast (words): human nerve and temporalis muscle sections; for normalized average signal intensity for nerve binding: normalized to parent FAM-HNP401, topical 100 μM, human sural nerve sections; for effect of truncation on binding and solubility: deletion from C terminus of HNP401
From the text: To determine the affinity of phage selected peptides for binding to human nerve they were chemically synthesized by solid-phase synthesis and labeled with fluorescein at the C-terminus via a GGC linker. Peptides were topically applied to sectioned human sural nerve and human temporalis muscle to determine nerve to muscle contrast. […] To confirm binding and contrast of HNP401 for additional nerve types binding was compared in nerve and muscle with both HNP401 and NP41 on facial brachial plexus nerve (FIG. 9). […] FAM-HNP401 was additionally tested topically on ex-vivo tissue for labeling of mouse facial nerve with surrounding muscle (FIG. 10, J-M).
To test the affinity of selected phage display peptides for binding to human nerves, they were chemically synthesized by solid-phase synthesis and labeled with fluorescein at the C-terminus. Peptides were topically applied to sections of surgically harvested human sural nerve and temporalis muscle to determine nerve to muscle contrast for selected peptides and controls (FIG. 23). […] To quantify differential binding to nerve versus muscle, fluorescence signal intensity was measured for ROIs from the perineurium of select nerves and human temporalis muscle.
To enhance and attempt to determine the core binding domain of HNP401, systematic deletion of two amino acids from the C or N terminus was performed (see, for example, FIG. 30) followed by binding analysis on human sural nerve sections (FIG. 20). In each case nerve binding and signal intensity was normalized to the parent FAM-HNP401 peptide (FIG. 20J).
Image J was used to analyze and compare images acquired using the confocal microscope and the Lumar dissecting scope. For each experimental set where probes were compared, we kept the acquisition parameters identical so as to directly compare the data obtained. […] All raw image files for a given experimental cohort were loaded at the same time into Image J as 16-bit tiff images. We then levelled the image for tissue treated with FAM-HNP401. Once these levels were set, the settings are propagated to all images in one step using Image J. The brightest image is set as the benchmark for all other images in the cohort to avoid saturating when the leveling is propagated.

[2] = Stability of peptides in ex-vivo human plasma (LC-MS); settings: 37° C., 5 min vs 2 hours
Experimental: FIGS. 28A-28F: Stability of peptides in ex-vivo human plasma and cerebrospinal fluid from rats. […] An equal volume of 1:1 acetonitrile:water with 2% acetic acid is added to precipitate the protein matter, supernatant is extracted for analysis by LC-MS on a C18 reverse phase column with gradient of 9:1 H2O+0.05% TFA:Acetonitrile+0.05% TFA to 1:9 H2O+0.05% TFA:Acetonitrile+0.05% TFA in 20 min.
The bladder was drained with a syringe and sutured to avoid spillage and contamination around prostate. […] Stability of FAM-HNP401 in human plasma at 5 minutes and 2 hours was determined by incubation of peptide dye conjugate in human serum prior to analysis by mass spectrometry.

[3] = system: autonomic nerves isolated from human prostate glands; test: Topical application on sections of nerves from human prostate gland; format: binding; settings: topical 100 μM, 10 μm sections, two patients
Experimental: FAM-HNP401 and FAM-NP41 were then tested topically for binding to autonomic nerves, isolated from excised prostate glands of two human patients (FIGS. 12 and 13). […] Labelled fiber were confirmed as nerve using anti-neurofilament antibody SMI312 (red) and DAPI (blue) to show nuclear labeling (FIG. 12C). H&E staining was also done to confirm label tissue as nerve (FIG. 12D). Similar staining was obtained for peripheral sensory anti-brachial cutaneous nerve isolated from a human arm (FIG. 12E-H).
FAM-HNP401 and FAM-NP41 were tested for binding to autonomic nerves, isolated from the prostate glands of two human patients (FIGS. 19 and 29). […] Quantitation was not done because only 2 patient samples were available for testing as nerve resection during radical prostatectomy is only performed in instances of gross capsular invasion. Labelled fibers were confirmed as nerve using anti-neurofilament antibody SMI312 (red) with DAPI (blue) to show nuclear labeling (FIG. 19C). H&E staining also confirmed label tissue as nerve by histology (FIG. 19D). […] Similar staining using FAM-HNP401 was obtained for another sensory nerve (anti-brachial cutaneous) isolated from human arm showing the broad nerve binding activity of HNP401 (FIGS. 19E-H).

mouse facial nerve = test: Topical application on ex-vivo mouse facial nerve with surrounding muscle; format: binding; settings: topical 375 and 100 μM, ex-vivo tissue
[4] = system: rat prostate cavernosal nerve; test: In-vivo labelling of rat prostate and sciatic nerve; settings: i.v., FAM-labelled peptide
Experimental: FIG. 6: Fluorescent labeling of rat prostate cavernosal nerve in live rats.
Either 150 or 450 nmoles nmoles of fluorescein labeled synthetic peptides were injected intravenously into mice. After a 2 hour waiting period for washout of nonspecific binding, mice were anesthetized and skin incisions were made over the dorsal surface of the hind legs to expose the sciatic nerve. Brightfield and fluorescent images were obtained with a dissecting microscope using Metamorph software (FIG. 1). Quantitation of fluorescence of nerves and adjacent non-nerve tissue was performed with Image J (FIG. 2). Peptides were also topically applied to human nerve sections. […]
Following anesthesia with intra-peritoneal injection of ketamine (80 mg/kg) and midazolam (40 mg/kg), FAM-NP41 or its variants were administered into mice retro-orbitally. […] The autonomic nerve along the cavernosal vessel in the prostate was imaged and recorded using a custom-made surgical imaging system. This system is a modified from Olympus MVX10 scope capable of hi-resolution fluorescence, RGB reflectance and realtime overlay with zoom from 0.6 to 5.7 cm field of view. ImageJ was used for quantitative analysis of nerve contrast for each peptide dye conjugate tested. Images of autonomic nerve in prostate were selected from the recorded files and magnified 300-400% prior to selection of ROI and measurement. […]

[5] = Mass spectroscopy analysis of urine after injection of nerve binding peptides
[6] = system: human laryngeal nerve sections; test: Dose response of FAM-HNP401 by topical application on human nerve sections, confocal; settings: low concentration (10 μM)
Experimental: Determination of optimal dose response by topical application of FAM-HNP401 on human laryngeal nerve sections at final concentration of 375 μM (A), 100 μM (B), 50 μM (C), 10 μM (D) and 1 μM (E), imaged with confocal microscopy with identical parameters and levelled equally for comparison. **brightened 2 fold for viewing.
Dose response data set of FAM-HNP401 on human nerve tissue (FIGS. 25:A-E) was acquired with 488 nm laser line, 10 μm sections on glass at 10× magnification, 0.45 NA air objective lens. Gain set to 40, power set to 3% of laser power, pixel dwell value of 1.2 μs, aperture size of 1.1 μm and a pixel size of 0.3 μm/px with a 2 k by 2 k size image.
Human peripheral nerves (typically sural) were obtained from patients undergoing nerve resection procedures. Human nerves from prostate gland of two patients were acquired under Moores Cancer Centre Biorepository IRB protocol number 090401. Tissue were sectioned and mounted on glass slides or Cryojane tape. Tissue sections were placed in a humidifier chamber for 30 min before application of the peptide solution. Peptides were diluted to appropriate concentration in 0.5×HBSS prior to topical application. 50 μl of peptide solution of with known concentration (1 μM to 375 μM) were applied to 10 μm nerve sections on tape or slides and incubated for 30 minutes in a humidifier chamber. After incubation with peptide nerve sections were washed with twice with 0.5×HBSS and once with 1×PBS. A cover-slip was applied and slides were imaged immediately on either a Zeiss Lumar dissecting scope of Nikon A1 confocal microscope. For confocal imaging tissue sections of 10 μm thickness were imaged with 488 nm laser excitation 515 (25) and a 10× air objective and a 0.26 µm/pixel size.

Compound: O=C1OC2(c3ccccc31)c1cc(I)c(O)c(I)c1Oc1c2cc(I)c(O)c1I [Erythrosine extra bluish]
quenching of FAM-NP41 fluorescence ([1]; 2.5 times dye to fluorescein ratio): > 80%
quenching of FAM-NP41 fluorescence ([1]; 5× dye to fluorescein ratio): > 95%
bladder fluorescence after quencher (bladder fluorescence): near background level

Compound: CC(=O)N[C@@H](CO)C(=O)NCC(=O)N[C@@H](CCC(N)=O)C(=O)N[C@H](C(=O)N1CCC[C@H]1C(=O)N[C@@H](Cc1c[nH]c2ccccc12)C(=O)N[C@@H](CCC(=O)O)C(=O)N[C@@H](CCC(=O)O)C(=O)N1CCC[C@H]1C(=O)N[C@@H](Cc1ccc(O)cc1)C(=O)N[C@@H](Cc1ccc(O)cc1)C(=O)N[C@H](C(=O)N[C@H](C(=O)N[C@@H](CCCCN)C(=O)N[C@@H](CCCCN)C(=O)N[C@@H](CO)C(=O)N[C@@H](CO)C(=O)NCC(=O)NCC(=O)N[C@@H](CSC1CC(=O)N(c2ccc3c(c2)C(=O)OC32c3ccc(O)cc3Oc3cc(O)ccc32)C1=O)C(N)=O)C(C)C)C(C)C)C(C)C (stereo partly shown) [FAM-HNP401] (Ac-SGQVPWEEPYYVVKKSSGGC(Fluorescein(5-Mal))-NH2)
nerve to surrounding muscle contrast (sciatic nerve; imaged 2 h post injection, SKH1 mice): 5.79±0.81
increase in sciatic nerve fluorescence intensity compared to NP41 (sciatic nerve; mice): 2.3 fold
signal intensity for in-vivo binding to mouse sciatic nerve compared to FAM-NP41 (sciatic nerve; mice): 2.3 ×
nerve to muscle contrast (human sural nerve; human sural nerve vs temporalis muscle, topical 100 μM, n=4): 3.03±0.57
fluorescent signal intensity of perineurium (human sural nerve; topical 100 μM, 10 μm unfixed sections, confocal, n=4): 1374.44±425.96
nerve binding and nerve to muscle contrast (words) (human sural nerve; topical 100 μM): highest contrast
fluorescent signal intensity compared to FAM-NP41 (human sural nerve; topical 100 μM, human sural nerve): 10.9 ×
signal for binding human nerve compared to FAM-NP41 (human sural nerve; topical, human nerve): 10 fold
stability in human plasma [2]: remain intact; also recorded: stable
fluorescent signal in human autonomic (cavernosal) nerves compared to FAM-NP41 [3]: significantly higher fluorescent signal
labeling of mouse facial nerve versus surrounding muscle (mouse facial nerve): poor contrast; also recorded: did not perform as well as FAM-NP41
fluorescent labeling of rat prostate and sciatic nerve in live rats [4]: highlighted
metabolism of peptide detected in urine [5]: partially metabolized
structures of nerve bound (confocal imaging) [6]: binding of peptide to non-axonal structural components of nerve; also recorded: excluded from axons
structures of nerve bound (confocal imaging) ([6]; listed as FAM-HMP401): does not bind axons, but preferentially binds the perineurium
structures of nerve bound (confocal imaging) ([6]; listed as HNP401-FAM): binds epineurium, perineurium and endonerium but not axons

normalized average signal intensity for nerve binding (human sural nerve): 1.0±0.34
Compound: Ac-EEPYYVVKKSSGGC [HNP401-N-6, with GGC linker, tested FAM labelled]

normalized average signal intensity for nerve binding (human sural nerve): 0.56±0.18
Compound: Ac-PWEEPYYVVKKSSGGC [HNP401-N-4, with GGC linker, tested FAM labelled]

normalized average signal intensity for nerve binding (human sural nerve): 0.98±0.31
Compound: Ac-PYYVVKKSSGGC [HNP401-N-8, with GGC linker, tested FAM labelled]

Compound: Ac-QVPWEEPYYVVKKSSGGC [HNP401-N-2, with GGC linker, tested FAM labelled]
normalized nerve to temporalis muscle contrast, increase with respect to FAM-HNP401 (human sural nerve; human sural nerve vs temporalis muscle): 3 fold
normalized average signal intensity for nerve binding (human sural nerve): 2.02±0.65
average signal intensity, nerve binding of deletion variants (human sural nerve; topical 100 uM FAM labelled, human nerve sections, n=5): 1498.73 (+/−517.63)

Compound: Ac-SGQVPWEEPYYVVGGC [HNP401-C-4, with GGC linker, tested FAM labelled]
effect of truncation on binding and solubility (human sural nerve): reduced dramatically
normalized average signal intensity for nerve binding (human sural nerve): 0.49±0.11

Compound: Ac-SGQVPWEEPYYVVKKGGC [HNP401-C-2, with GGC linker, tested FAM labelled]
effect of truncation on binding and solubility (human sural nerve): tolerated

Compound: SEFPRSWDMETN [HNP301]
fluorescent labeling of rat prostate and sciatic nerve in live rats [4]: not showing as much contrast

nerve binding and nerve to muscle contrast (words) (human sural nerve; topical 100 μM): only weak non-specific binding
nerve binding and nerve to muscle contrast (words) (human sural nerve; topical 100 μM, listed as Carboxyfluorescein): low signal and non-specific binding
Compound: carboxyfluorescein [reference compound]

— patent US12533425B2, “Methods and systems using peptides for targeting and mapping human nerves in image guided surgery, diagnostics and therapeutic delivery” (ALUME BIOSCIENCES, INC., priority 2019, dated 2026)
